Measurements from patent publication US9297048B2, “Antibiotic resistance profile for Neisseria gonorrhoeae and use of same in diagnosis and treatment of gonorrhea” (Medical Diagnostic Laboratories, LLC, priority 2010, dated 2016).
Read-outs that look alike come from different tables or passages of the source.

Columns and labels:
[1] = tested on: Neisseria gonorrhoeae strain ATCC 27628; assay: Neisseria gonorrhoeae antibiotic resistance panel assay (multiplex PCR + allele-specific primer extension); conditions: no mutations/genetic markers detected
Text: (§1) FIG. 1 is a flow chart summarizing the overall steps for our antibiotic resistance assay. Note that the assay involves multiplex PCRs, followed by allele-specific primer extensions and detection means (e.g., capillary electrophoresis, gel electrophoresis or DNA micro array).
(§2) DNA was isolated from either cells obtained from ATCC or clinical samples (e.g., cervical swab) using standard protocols (i.e., guanidine thiocyanate extraction). Multiplex PCR primers were designed using Beacon Designer software v5.0 (Premier Biosoft, CA). The choice of primers was determined using several parameters including primer length, primer melting temperature, primer annealing temperature and GC content. These primers were selected to avoid hairpin and primer-dimer formation (i.e., avoid possible non-specific hybridization). In our assay, we performed four (4) multiplex PCR. This permits a rapid amplification of genes via multiplex PCRs that lack interference.
(§3) Using the selected primers (Example 4), we performed multiplex allele-specific primer extension reactions. The allele-specific primer extension reaction was performed in a single vessel, which contained a total volume of 20 μl. The multiplex allele-specific reactions contained 1×PCR buffer (Invitrogen, CA), 1.25 mM MgCl2, 100 nM of each primer, 5 μM dATP, dTTP, dGTP (Invitrogen, CA), 5 μM biotin-dCTP (Invitrogen, CA), 1 U of Tsp DNA polymerase (Invitrogen, CA), and 5 μl of purified multiplex PCR products from all four (4) multiplex PCRs as templates.
(§4) Thermal cycling conditions for extension reactions were performed in a Biometra 3.0 PCR System (Biometra, Germany) programmed for an initial cycle of 1 min at 95° C. followed by 35 cycles of 30 sec at 95° C., 30 sec at 55° C., and 30 sec at 72° C. A final 10 min extension step was performed at 72° C.
(§5) Detection of allele-specific extended primers is indicative of the presence of SNP in the genes examined. Detection of allele-specific extended primers can be achieved by several methodologies. This includes gel electrophoresis, capillary electrophoresis, as well as DNA microarray. In this particular example, we illustrated the use of a DNA microarray. The working principle of a DNA microarray involves the use of microspheres to hybridize and sort out the allele-specific extended primers, and followed by their subsequent detection using an array reader. The presence of fluorescence is indicative of the presence of an allele-specific extended primer, which in turn is indicative of the presence of a SNP in the gene.
(§6) Extended allele-specific primer hybridizations were performed using oligonucleotide-labeled xMAP flow cytometric microspheres (Luminex Corp, TX) in a hybridization buffer containing 0.2 M NaCl, 0.08% sodium lauroylsarcosine, 0.1 M Tris-HCl, pH 8.0, and 4 mM EDTA pH 8.0. Reactions were carried out in a Biometra 3.0 PCR System (Biometra, Germany) programmed for a 3 min melting at 95° C. and a 15 min hybridization at 37° C.
(§7) Sorting of allele-specific extended primers hybridized to xMAP microspheres was performed using a Bio-Plex 200 (Bio-Rad, CA) flow cytometry instrument.
(§8) 1 μl Streptavidin R-phycoerythrin conjugate (SAPE) and 250 μl 1×NaCl hybridization buffer was added to each sorted xMAP microsphere. Microspheres hybridized to allele-specific extended primers containing biotin-dCTP fluoresce and were detected using the Bio-Plex 200 array reader.
(§9) Using our antibiotic resistance panel assay, we examined the antibiotic resistance profile in these six (6) Neisseria gonorrhoeae strains. The results of the panel assay are presented in graphical format which includes 30 genetic markers (i.e., 28 point mutations in eight (8) chromosomal genes in Neisseria gonorrhoeae, two (2) plasmid genes, as well as 17 alleles in controls). Normal alleles are shown by white bars, mutant alleles, confirming resistance, are shown by black bars (See, FIGS. 3-8). […]

[2] = tested on: Neisseria gonorrhoeae strain ATCC 49981; assay: as above; conditions: concluded from mutations/genetic markers detected
Text: as §1, §2, §3, §4, §5, §6, §7, §8, §9

[3] = tested on: Neisseria gonorrhoeae strain ATCC 19424; assay: as above; conditions: no mutations/genetic markers detected
Text: as §1, §2, §3, §4, §5, §6, §7, §8, §9

[4] = tested on: Neisseria gonorrhoeae strain ATCC 31426; assay: as above; conditions: concluded from mutations/genetic markers detected
Text: as §1, §2, §3, §4, §5, §6, §7, §8, §9

[5] = tested on: Neisseria gonorrhoeae strain ATCC 31953; assay: as above; conditions: concluded from mutations/genetic markers detected
Text: as §1, §2, §3, §4, §5, §6, §7, §8, §9

[6] = tested on: Neisseria gonorrhoeae isolates containing mosaic penA; conditions: cited from earlier work
[7] = tested on: Neisseria gonorrhoeae from clinical sample 2; assay: Antibiotic resistance panel assay on cervicovaginal swab; conditions: mutations in penA, gyrA, ponA, parC, porB, mtrR, rpsJ
Text: Cervicovaginal swabs were obtained using OneSwab® technology.

[8] = tested on: Neisseria gonorrhoeae from clinical sample 1; assay: as above; conditions: mutations in penA, ponA, porB, mtrR, rpsJ
[9] = tested on: Neisseria gonorrhoeae from clinical sample 3; assay: as above; conditions: mutations in penA and rpsJ
[10] = tested on: Neisseria gonorrhoeae strain ATCC 49226; assay: Neisseria gonorrhoeae antibiotic resistance panel assay (multiplex PCR + allele-specific primer extension); conditions: concluded from mutations/genetic markers detected
Text: as §1, §2, §3, §4, §5, §6, §7, §8, §9

Row | Molecule | Antibiotic Resistance Profile Using our Assay [1] | Antibiotic Resistance Profile Using our Assay [2] | Antibiotic Resistance Profile Using our Assay [3] | Antibiotic Resistance Profile Using our Assay [4] | Antibiotic Resistance Profile Using our Assay [5] | MICs ([6]; three of five mosaic penA isolates containing the G545S C-terminal mutation) | MICs ([6]; two mosaic penA isolates without the G545S C-terminal mutation) | level of resistance implied by panel assay [7] | level of antibiotic resistance implied by panel assay [8] | level of resistance implied by panel assay [9] | Antibiotic Resistance Profile Using our Assay [10]
1 | O=C(O)c1cn(C2CC2)c2cc(N3CCNCC3)c(F)cc2c1=O [ciprofloxacin] | susceptible | resistant | susceptible | resistant | resistant | – | – | – | – | – | –
2 | CN[C@@H]1[C@H](O)[C@H](NC)[C@H]2O[C@@]3(O)C(=O)C[C@@H](C)O[C@H]3O[C@@H]2[C@H]1O [spectinomycin] | susceptible | – | susceptible | – | – | – | – | – | – | – | –
3 | CO/N=C(\C(=O)N[C@@H]1C(=O)N2C(C(=O)O)=C(CSc3nc(=O)c(=O)[nH]n3C)CS[C@H]12)c1csc(N)n1 [ceftriaxone] | – | – | – | – | – | elevated MICs | wild-type MICs | – | – | – | –
4 | CC[C@H]1OC(=O)[C@H](C)[C@@H](O[C@H]2C[C@@](C)(OC)[C@@H](O)[C@H](C)O2)[C@H](C)[C@@H](O[C@@H]2O[C@H](C)C[C@H](N(C)C)[C@H]2O)[C@](C)(O)C[C@@H](C)CN(C)[C@H](C)[C@@H](O)[C@]1(C)O [azithromycin] | susceptible | resistant | susceptible | resistant | – | – | – | intermediate level of resistance | intermediate level of antibiotic resistance | – | –
5 | penicillin | susceptible | resistant | susceptible | resistant | – | – | – | high level of resistance | intermediate level of antibiotic resistance | low level of resistance | resistant
